# US9149038B2, “4-amino-6-(heterocyclic)picolinates and 6-amino-2-(heterocyclic)pyrimidine-4-carboxylates and their use as herbicides” (Dow AgroSciences LLC, priority 2013, dated 2015)
# Read-outs that look alike come from different tables or passages of the source.
# Columns and labels:
# [1] = system: Key Broadleaf Weed and Crop Species; assay: Post-Emergent Test II: postemergent herbicidal activity, visual rating after 14 d (Table 7); assay type: in vivo; settings: post-emergence, 336 h; for pest or weed control at 35 g/ha: 35 g ai/ha; for pest or weed control at 70 g/ha: 70 g ai/ha; for pest or weed control at 140 g/ha: 140 g ai/ha; for pest or weed control at 280 g/ha: 280 g ai/ha
# Procedure, shortened: (§1)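 Visual 0-100% injury score (0 no injury, 100 complete kill) at 14 d post-spray, relative to untreated plants. Seedlings at 1st-2nd true leaf stage; track sprayer at 187 L/ha, highest rate plus ½×, ¼×, ⅛×, 1/16× serial dilutions. Subirrigated after treatment.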
# [2] = system: Key Grass and Sedge Weeds as well as Grass Crops; assay: Post-Emergent Test II: postemergent herbicidal activity, visual rating after 14 d (Table 8); assay type: in vivo; settings: post-emergence, 336 h; for pest or weed control at 35 g/ha: 35 g ai/ha; for pest or weed control at 70 g/ha: 70 g ai/ha; for pest or weed control at 140 g/ha: 140 g ai/ha; for pest or weed control at 280 g/ha: 280 g ai/ha
# Procedure, shortened: as §1
# [3] = ABUTH: velvetleaf (Abutilon theophrasti), read-out: Visual Growth Reduction (%) 14 Days After Application ABUTH
# [4] = AMARE: redroot pigweed (Amaranthus retroflexus), read-out: Visual Growth Reduction (%) 14 Days After Application AMARE
# [5] = BRSNN: oilseed rape, canola (Brassica napus), read-out: Visual Growth Reduction (%) 14 Days After Application BRSNN
# [6] = CHEAL: lambsquarters (Chenopodium album), read-out: Visual Growth Reduction (%) 14 Days After Application CHEAL
# [7] = EPHHL: wild poinsettia (Euphorbia heterophylla), read-out: Visual Growth Reduction (%) 14 Days After Application EPHHL
# [8] = HELAN: sunflower (Helianthus annuus), read-out: Visual Growth Reduction (%) 14 Days After Application HELAN
# [9] = barnyardgrass (Echinochloa crus-galli), read-out: Visual Growth Reduction (%) 14 Days After Application, ECHCG
# [10] = giant foxtail (Setaria faberi), read-out: Visual Growth Reduction (%) 14 Days After Application, SETFA
# [11] = maize, corn (Zea mays), read-out: Visual Growth Reduction (%) 14 Days After Application, ZEAMX
# [12] = rice (Oryza sativa), read-out: Visual Growth Reduction (%) 14 Days After Application, ORYSA
# [13] = wheat, spring (Triticum aestivum), read-out: Visual Growth Reduction (%) 14 Days After Application, TRZAS
# [14] = yellow nutsedge (Cyperus esculentus), read-out: Visual Growth Reduction (%) 14 Days After Application, CYPES
compound,measurement,setting,value
COC(=O)c1nc(-c2ccc3c(c2F)OC(F)(F)C3(F)F)cc(N)c1Cl [Compound 106],pest or weed control at 35 g/ha,[1]; [3],45 to 59%
same,pest or weed control at 70 g/ha,[1]; [3],75 to 84%
same,pest or weed control at 140 g/ha,[1]; [3],75 to 84%
same,pest or weed control at 280 g/ha,[1]; [3],85 to 94%
same,pest or weed control at 35 g/ha,[1]; [4],30 to 44%
same,pest or weed control at 70 g/ha,[1]; [4],30 to 44%
same,pest or weed control at 140 g/ha,[1]; [4],60 to 74%
same,pest or weed control at 280 g/ha,[1]; [4],75 to 84%
same,pest or weed control at 35 g/ha,[1]; [5],0 to 29%
same,pest or weed control at 70 g/ha,[1]; [5],0 to 29%
same,pest or weed control at 140 g/ha,[1]; [5],0 to 29%
same,pest or weed control at 280 g/ha,[1]; [5],0 to 29%
same,pest or weed control at 35 g/ha,[1]; [6],0 to 29%
same,pest or weed control at 70 g/ha,[1]; [6],0 to 29%
same,pest or weed control at 140 g/ha,[1]; [6],45 to 59%
same,pest or weed control at 280 g/ha,[1]; [6],75 to 84%
same,pest or weed control at 35 g/ha,[1]; [7],45 to 59%
same,pest or weed control at 70 g/ha,[1]; [7],60 to 74%
same,pest or weed control at 140 g/ha,[1]; [7],75 to 84%
same,pest or weed control at 280 g/ha,[1]; [7],75 to 84%
same,pest or weed control at 35 g/ha,[1]; [8],0 to 29%
same,pest or weed control at 70 g/ha,[1]; [8],0 to 29%
same,pest or weed control at 140 g/ha,[1]; [8],0 to 29%
same,pest or weed control at 280 g/ha,[1]; [8],30 to 44%
same,pest or weed control at 35 g/ha,[2]; [9],0 to 29%
same,pest or weed control at 70 g/ha,[2]; [9],0 to 29%
same,pest or weed control at 140 g/ha,[2]; [9],0 to 29%
same,pest or weed control at 280 g/ha,[2]; [9],0 to 29%
same,pest or weed control at 35 g/ha,[2]; [10],0 to 29%
same,pest or weed control at 70 g/ha,[2]; [10],0 to 29%
same,pest or weed control at 140 g/ha,[2]; [10],0 to 29%
same,pest or weed control at 280 g/ha,[2]; [10],0 to 29%
same,pest or weed control at 35 g/ha,[2]; [11],0 to 29%
same,pest or weed control at 70 g/ha,[2]; [11],0 to 29%
same,pest or weed control at 140 g/ha,[2]; [11],0 to 29%
same,pest or weed control at 280 g/ha,[2]; [11],0 to 29%
same,pest or weed control at 35 g/ha,[2]; [12],0 to 29%
same,pest or weed control at 70 g/ha,[2]; [12],0 to 29%
same,pest or weed control at 140 g/ha,[2]; [12],0 to 29%
same,pest or weed control at 280 g/ha,[2]; [12],0 to 29%
same,pest or weed control at 35 g/ha,[2]; [13],0 to 29%
same,pest or weed control at 70 g/ha,[2]; [13],0 to 29%
same,pest or weed control at 140 g/ha,[2]; [13],0 to 29%
same,pest or weed control at 280 g/ha,[2]; [13],0 to 29%
same,pest or weed control at 35 g/ha,[2]; [14],0 to 29%
same,pest or weed control at 70 g/ha,[2]; [14],0 to 29%
same,pest or weed control at 140 g/ha,[2]; [14],0 to 29%
same,pest or weed control at 280 g/ha,[2]; [14],0 to 29%
"COC(=O)c1nc(-c2ccc3c(c2)COC3)c(F)c(N)c1Cl [Compound 103, Methyl 4-amino-3-chloro-6-(1,3-dihydroisobenzofuran-5-yl)-5-fluoropicolinate]",pest or weed control at 35 g/ha,[1]; [3],0 to 29%
same,pest or weed control at 70 g/ha,[1]; [3],0 to 29%
same,pest or weed control at 140 g/ha,[1]; [3],0 to 29%
same,pest or weed control at 35 g/ha,[1]; [4],0 to 29%
same,pest or weed control at 70 g/ha,[1]; [4],0 to 29%
same,pest or weed control at 140 g/ha,[1]; [4],0 to 29%
same,pest or weed control at 35 g/ha,[1]; [5],0 to 29%
same,pest or weed control at 70 g/ha,[1]; [5],0 to 29%
same,pest or weed control at 140 g/ha,[1]; [5],0 to 29%
same,pest or weed control at 35 g/ha,[1]; [6],45 to 59%
same,pest or weed control at 70 g/ha,[1]; [6],85 to 94%
same,pest or weed control at 140 g/ha,[1]; [6],95 to 100%
same,pest or weed control at 35 g/ha,[1]; [7],0 to 29%
same,pest or weed control at 70 g/ha,[1]; [7],0 to 29%
same,pest or weed control at 140 g/ha,[1]; [7],0 to 29%
same,pest or weed control at 35 g/ha,[1]; [8],75 to 84%
same,pest or weed control at 70 g/ha,[1]; [8],75 to 84%
same,pest or weed control at 140 g/ha,[1]; [8],75 to 84%
same,pest or weed control at 35 g/ha,[2]; [9],0 to 29%
same,pest or weed control at 70 g/ha,[2]; [9],0 to 29%
same,pest or weed control at 140 g/ha,[2]; [9],0 to 29%
same,pest or weed control at 35 g/ha,[2]; [10],0 to 29%
same,pest or weed control at 70 g/ha,[2]; [10],0 to 29%
same,pest or weed control at 140 g/ha,[2]; [10],0 to 29%
same,pest or weed control at 35 g/ha,[2]; [11],0 to 29%
same,pest or weed control at 70 g/ha,[2]; [11],0 to 29%
same,pest or weed control at 140 g/ha,[2]; [11],0 to 29%
same,pest or weed control at 35 g/ha,[2]; [12],0 to 29%
same,pest or weed control at 70 g/ha,[2]; [12],0 to 29%
same,pest or weed control at 140 g/ha,[2]; [12],0 to 29%
same,pest or weed control at 35 g/ha,[2]; [13],0 to 29%
same,pest or weed control at 70 g/ha,[2]; [13],0 to 29%
same,pest or weed control at 140 g/ha,[2]; [13],0 to 29%
same,pest or weed control at 35 g/ha,[2]; [14],0 to 29%
same,pest or weed control at 70 g/ha,[2]; [14],0 to 29%
same,pest or weed control at 140 g/ha,[2]; [14],0 to 29%
